{"source": "paper PMC9571937", "about": "“Synthesis and Structure–Activity Relationship Studies of Pyrido [1,2-e]Purine-2,4(1H,3H)-Dione Derivatives Targeting Flavin-Dependent Thymidylate Synthase in Mycobacterium tuberculosis” (Molecules, 2022)", "key": {"Mtb ThyX [1]": {"biological_target": "T1, Mtb ThyX (Mycobacterium tuberculosis, UniProt P9WG57)", "T1 sequence (P9WG57 whole entry)": "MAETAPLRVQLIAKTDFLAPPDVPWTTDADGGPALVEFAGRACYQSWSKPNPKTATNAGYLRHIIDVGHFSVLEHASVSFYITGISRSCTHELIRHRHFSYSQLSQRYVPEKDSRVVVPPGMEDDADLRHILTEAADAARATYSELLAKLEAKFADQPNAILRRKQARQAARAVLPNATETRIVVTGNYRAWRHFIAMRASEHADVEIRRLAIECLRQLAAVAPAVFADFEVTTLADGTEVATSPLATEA", "test": "M. tuberculosis ThyX tritium release assay", "type": "biochemical", "details": "200 µM compound; for ThyX inhibition, tritium release assay: 200 µM"}, "Mtb ThyX [2]": {"biological_target": "T1, Mtb ThyX", "test": "M. tuberculosis ThyX NADPH oxidase assay", "type": "biochemical", "details": "for Inhibition % (Mtb ThyX) / inhibition at 200 µM: 200 μM compound"}, "in vitro": {"test": "in vitro", "type": "cell-based", "details": "human", "method": "Assays were performed in human peripheral blood mononuclear (PBM) cells via MTS assay using the CellTiter 96® Non-Radioactive Cell Proliferation (Promega) kit. Cytotoxicity was expressed as the concentration of test compounds that inhibited cell growth by 50% (CC50)."}, "ThyX": {"test_system": "ThyX", "details": "cited from earlier work"}, "viral pathogens": {"test_system": "viral pathogens", "test": "Evaluation on viral pathogens"}, "[3]": {"details": "50 µM inhibitor concentration, read-out: ThyX inhibition at 50 µM of inhibitors"}, "[4]": {"details": "NADPH oxidase assay, 50 µM FAD, read-out: Inhibition % (Mtb ThyX)"}, "[5]": {"details": "absence of added FAD, read-out: ThyX inhibition without FAD addition"}}, "note": "Where two headings read alike, the source gives them in different places."}
{"molecule": "Cc1ccc(-n2c(=O)[nH]c3c(nc4ccccn43)c2=O)cc1", "note": "[Compound 9d, 3-(p-Tolyl)pyrido [1,2-e]purine-2,4(1H,3H)-dione]", "values": [{"measurement": "inhibition at 200 µM", "setting": "Mtb ThyX [1]", "result": 69.2, "unit": "%"}, {"measurement": "ThyX inhibition, tritium release assay", "setting": "Mtb ThyX [1]", "result": 77.1, "unit": "%"}, {"measurement": "inhibition at 50 µM", "setting": "Mtb ThyX [2]; [3]", "result": 2.6, "unit": "%"}, {"measurement": "Inhibition % (Mtb ThyX)", "setting": "Mtb ThyX [2]; NADPH oxidase assay, 50 µM FAD", "result": 55.4, "unit": "%"}, {"measurement": "inhibition at 200 µM", "setting": "Mtb ThyX [2]; [4]", "result": 55, "unit": "%"}, {"measurement": "inhibition at 200 µM", "setting": "Mtb ThyX [2]; [5]", "result": 20.4, "unit": "%"}]}
{"molecule": "O=c1[nH]c2c(nc3ccc(-c4ccccc4)cn32)c(=O)n1-c1ccc(F)cc1", "note": "[Compound 23a, 3-(p-Fluorophenyl)-8-phenyl-1H-purino [9,8-a]pyridine-2,4-dione]", "values": [{"measurement": "CC50", "setting": "in vitro", "result": "> 100000", "unit": "nM"}, {"measurement": "inhibition at 200 µM", "setting": "Mtb ThyX [2]; [4]", "result": 84.3, "unit": "%"}]}
{"molecule": "Cc1cc(N2CCN(C(=O)CCN3C(=O)COc4ccccc43)CC2)nc(C(C)C)n1", "note": "[Compound B1-PP146, reference compound]", "values": [{"measurement": "IC50", "setting": "ThyX; read-out: IC50 against ThyX", "result": 690, "unit": "nM"}, {"measurement": "inhibition at 50 µM", "setting": "Mtb ThyX [2]; positive control, value at 50 μM, NADPH oxidase assay, read-out: Inhibition % (Mtb ThyX)", "result": 95.1, "unit": "%"}]}
{"molecule": "O=C1C(O)=C(c2ccco2)C(=O)c2ccccc21", "note": "[Compound 2]", "values": [{"measurement": "Ki", "setting": "ThyX; read-out: inhibitory Ki against ThyX", "result": 28, "unit": "nM"}]}
{"molecule": "CCCCCCCC(=O)NCC#Cc1cn(C2CC(O)C(COP(=O)(O)O)O2)c(=O)[nH]c1=O", "note": "(stereo not drawn) [Compound 3]", "values": [{"measurement": "IC50", "setting": "ThyX; C5-modified dUMP analogs, read-out: IC50", "result": 910, "unit": "nM"}]}
{"molecule": "O=c1[nH]c2c(nc3ccccn32)c(=O)n1-c1ccc(F)cc1", "note": "[Compound 9a, 3-(4-Fluorophenyl)pyrido [1,2-e]purine-2,4(1H,3H)-dione]", "values": [{"measurement": "inhibition at 200 µM", "setting": "Mtb ThyX [1]", "result": 59.5, "unit": "%"}, {"measurement": "activity on viral pathogens", "setting": "viral pathogens", "result": "some promiscuous activity"}, {"measurement": "toxicity", "setting": "viral pathogens; evaluation on viral pathogens", "result": "without toxicity"}, {"measurement": "inhibition at 50 µM", "setting": "Mtb ThyX [2]; [3]", "result": 18.4, "unit": "%"}, {"measurement": "Inhibition % (Mtb ThyX)", "setting": "Mtb ThyX [2]; NADPH oxidase assay, 50 µM FAD", "result": 59.4, "unit": "%"}, {"measurement": "inhibition at 200 µM", "setting": "Mtb ThyX [2]; [4]", "result": 59.5, "unit": "%"}, {"measurement": "inhibition at 200 µM", "setting": "Mtb ThyX [2]; [5]", "result": 76.1, "unit": "%"}, {"measurement": "IC50", "setting": "Mtb ThyX [2]; calculated for 9a", "result": 95000, "unit": "nM"}]}
{"molecule": "O=c1[nH]c2c(nc3ccccn32)c(=O)n1-c1ccc(Cl)cc1", "note": "[Compound 9b, 3-(4-Chlorophenyl)pyrido [1,2-e]purine-2,4(1H,3H)-dione]", "values": [{"measurement": "inhibition at 200 µM", "setting": "Mtb ThyX [1]", "result": 77.1, "unit": "%"}, {"measurement": "ThyX inhibition, tritium release assay", "setting": "Mtb ThyX [1]", "result": 69.2, "unit": "%"}, {"measurement": "inhibition at 50 µM", "setting": "Mtb ThyX [2]; [3]", "result": 2.2, "unit": "%"}, {"measurement": "inhibition at 200 µM", "setting": "Mtb ThyX [2]; [4]", "result": 49.8, "unit": "%"}, {"measurement": "inhibition at 200 µM", "setting": "Mtb ThyX [2]; [5]", "result": 12.6, "unit": "%"}]}
{"molecule": "CCOC(=O)[C@@H]1CSC(c2ccccc2)N1C(=O)c1cn(CCCNC(=O)C(F)(F)F)nn1", "note": "(stereo partly drawn) [Compound 1]", "values": [{"measurement": "IC50", "setting": "ThyX; read-out: IC50 against ThyX", "result": 57, "unit": "nM"}]}
{"molecule": "CCCCCCC#Cc1ccc2nc3c(=O)n(-c4ccc(F)cc4)c(=O)[nH]c3n2c1", "note": "[Compound 21e, 3-(p-Fluorophenyl)-8-oct-1-ynyl-1H-purino [9,8-a]pyridine-2,4-dione]", "values": [{"measurement": "inhibition at 200 µM", "setting": "Mtb ThyX [2]; [4]", "result": 31.7, "unit": "%"}]}
{"molecule": "O=c1[nH]c2c(nc3cc(-c4ccc(OC(F)(F)F)cc4)ccn32)c(=O)n1-c1ccc(F)cc1", "note": "[Compound 22d, 3-(p-fluorophenyl)-7-[p-(trifluoromethoxy)phenyl]-1H-purino [9,8-a]pyridine-2,4-dione]", "values": [{"measurement": "inhibition at 200 µM", "setting": "Mtb ThyX [2]; [4]", "result": "≤ 28", "unit": "%"}]}
{"molecule": "O=c1[nH]c2c(nc3ccccn32)c(=O)n1Cc1ccccc1", "note": "[Compound 10a, 3-(Benzyl)pyrido [1,2-e]purine-2,4(1H,3H)-dione]", "values": [{"measurement": "inhibition at 200 µM", "setting": "Mtb ThyX [2]; [4]", "result": 22.3, "unit": "%"}]}
{"molecule": "O=c1c2nc3ccccn3c2[nH]c(=S)n1Cc1ccccc1", "note": "[Compound 12, 3-Benzyl-2-thioxo-2,3-dihydropyrido [1,2-e]purin-4(1H)-one]", "values": [{"measurement": "inhibition at 200 µM", "setting": "Mtb ThyX [2]; [4]", "result": 0, "unit": "%"}]}
